The record followed here is US9326973B2, “Hepatitis C virus inhibitors” (priority 2012, dated 2016).

The experiment relates to HCV replicon, genotype-1a variant with glutamine 30 changed to glutamate in the NS5A protein. The experiment is described as follows: microbe, parasite or virus in culture. The experiment is classed as cell-based, HCV genotype 1a. To be noted: HCV replicon genotype 1a Q30E (Q→E) variant; test compound titrated with an NS5A-targeting compound (BMS-790052 fixed at 200 nM); ranking of synergist activity. The procedure, abridged:
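Synergy was assessed by combining several fixed amounts of an NS5A-targeting compound with a titration of the second compound of interest.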

In the case of `CC(C)(C)OC(=O)N[C@@H]1CCCC(C(=O)N[C@H](c2nc(-c3ccc(-c4ccc(-c5c[nH]c([C@@H](NC(=O)C6CCC[C@@H](NC(=O)OC(C)(C)C)C6)C(C)(C)C)n5)cc4)cc3)c[nH]2)C(C)(C)C)C1` (some centres unmarked) [Compound S-266], the “Fold-Synergistic 1a (Q30E)” value is above 100 fold. Take `COc1ccc(CNC(C)(C)C(=O)N[C@H](c2nc(-c3ccc(-c4ccc(-c5c[nH]c([C@@H](NC(=O)C(C)(C)NCc6ccc(OC)cc6)C(C)(C)C)n5)cc4)cc3)c[nH]2)C(C)(C)C)cc1` [Compound S-267]: the “Fold-Synergistic 1a (Q30E)” value was above 100 fold. As for `CN1CCC(C(=O)N[C@H](c2nc(-c3ccc(-c4ccc(-c5c[nH]c([C@@H](NC(=O)C6CCN(C)CC6)C(C)(C)C)n5)cc4)cc3)c[nH]2)C(C)(C)C)CC1` [Compound S-268], the “Fold-Synergistic 1a (Q30E)” value is above 10 fold. As for `CC(C)(C)[C@H](NC(=O)C1CCCCC1c1ccccc1)c1nc(-c2ccc(-c3ccc(-c4c[nH]c([C@@H](NC(=O)C5CCCCC5c5ccccc5)C(C)(C)C)n4)cc3)cc2)c[nH]1` (some centres unmarked) [Compound S-269], the “Fold-Synergistic 1a (Q30E)” value is recorded as above 100 fold. In the case of `CC(C)(C)OC(=O)NC1CCC(C(=O)N[C@H](c2nc(-c3ccc(-c4ccc(-c5c[nH]c([C@@H](NC(=O)C6CCC(NC(=O)OC(C)(C)C)CC6)C(C)(C)C)n5)cc4)cc3)c[nH]2)C(C)(C)C)CC1` (some centres unmarked) [Compound S-270], the “Fold-Synergistic 1a (Q30E)” value is on record as above 100 fold. In the case of `CC(C)(C)OC(=O)C[C@H](C(=O)N[C@H](c1nc(-c2ccc(-c3ccc(-c4c[nH]c([C@@H](NC(=O)[C@@H](CC(=O)OC(C)(C)C)C5CCCC5)C(C)(C)C)n4)cc3)cc2)c[nH]1)C(C)(C)C)C1CCCC1` [Compound S-272], the “Fold-Synergistic 1a (Q30E)” value is above 100 fold. In the case of `COC(=O)C1(C(=O)N[C@H](c2nc(-c3ccc(-c4ccc(-c5c[nH]c([C@@H](NC(=O)C6(C(=O)OC)CCCCC6)C(C)(C)C)n5)cc4)cc3)c[nH]2)C(C)(C)C)CCCCC1` [Compound S-273], the “Fold-Synergistic 1a (Q30E)” value is above 100 fold. In the case of `CC(=O)OC1C2CCCC1(C(=O)N[C@H](c1nc(-c3ccc(-c4ccc(-c5c[nH]c([C@@H](NC(=O)C67CCCC(CCC6)C7OC(C)=O)C(C)(C)C)n5)cc4)cc3)c[nH]1)C(C)(C)C)CCC2` (some centres unmarked) [Compound S-274], the “Fold-Synergistic 1a (Q30E)” value is above 100 fold.

In the case of `COC(=O)N[C@@H]1CCCCC1C(=O)N[C@H](c1nc(-c2ccc(-c3ccc(-c4c[nH]c([C@@H](NC(=O)C5CCCC[C@H]5NC(=O)OC)C(C)(C)C)n4)cc3)cc2)c[nH]1)C(C)(C)C` (some centres unmarked) [Compound S-275], the “Fold-Synergistic 1a (Q30E)” value is on record as above 100 fold.

In the case of `CC(C)(C)[C@H](NC(=O)C(C)(C)n1ncnn1)c1nc(-c2ccc(-c3ccc(-c4c[nH]c([C@@H](NC(=O)C(C)(C)n5ncnn5)C(C)(C)C)n4)cc3)cc2)c[nH]1` [Compound S-276], the “Fold-Synergistic 1a (Q30E)” value is on record as above 100 fold.

Consider `CC(C)(C)[C@H](NC(=O)C(C)(C)n1cnnn1)c1nc(-c2ccc(-c3ccc(-c4c[nH]c([C@@H](NC(=O)C(C)(C)n5cnnn5)C(C)(C)C)n4)cc3)cc2)c[nH]1` [Compound S-277], for which the “Fold-Synergistic 1a (Q30E)” value is given as above 100 fold. As for `Cc1c2c(nn1C)CCC(C(=O)N[C@H](c1nc(-c3ccc(-c4ccc(-c5c[nH]c([C@@H](NC(=O)C6CCc7nn(C)c(C)c7C6)C(C)(C)C)n5)cc4)cc3)c[nH]1)C(C)(C)C)C2` (some centres unmarked) [Compound S-278], the “Fold-Synergistic 1a (Q30E)” value is given as above 100 fold. Regarding `CC1(C)OC(=O)CC1C(=O)N[C@H](c1nc(-c2ccc(-c3ccc(-c4c[nH]c([C@@H](NC(=O)C5CC(=O)OC5(C)C)C(C)(C)C)n4)cc3)cc2)c[nH]1)C(C)(C)C` (some centres unmarked) [Compound S-279], the “Fold-Synergistic 1a (Q30E)” value was above 10 fold.

Take `CC1(C(=O)N[C@H](c2nc(-c3ccc(-c4ccc(-c5c[nH]c([C@@H](NC(=O)C6(C)COC(c7ccccc7)OC6)C(C)(C)C)n5)cc4)cc3)c[nH]2)C(C)(C)C)COC(c2ccccc2)OC1` (some centres unmarked) [Compound S-280]: the “Fold-Synergistic 1a (Q30E)” value is reported as above 100 fold. Consider `CCCC(C)(C)C(=O)N[C@H](c1nc(-c2ccc(-c3ccc(-c4c[nH]c([C@@H](NC(=O)C(C)(C)CCC)C(C)(C)C)n4)cc3)cc2)c[nH]1)C(C)(C)C` [Compound S-281], for which the “Fold-Synergistic 1a (Q30E)” value is above 100 fold. Regarding `CC(C)(C)[C@H](NC(=O)C(F)(F)c1ccccc1)c1nc(-c2ccc(-c3ccc(-c4c[nH]c([C@@H](NC(=O)C(F)(F)c5ccccc5)C(C)(C)C)n4)cc3)cc2)c[nH]1` [Compound S-282], the “Fold-Synergistic 1a (Q30E)” value is listed as above 100 fold. The same measure for `CC(C)(C)[C@H](NC(=O)C(F)(F)C(O)c1cccnc1)c1nc(-c2ccc(-c3ccc(-c4c[nH]c([C@@H](NC(=O)C(F)(F)C(O)c5cccnc5)C(C)(C)C)n4)cc3)cc2)c[nH]1` (some centres unmarked) [Compound S-283]: above 100 fold; for `CCC(F)(F)C(=O)N[C@H](c1nc(-c2ccc(-c3ccc(-c4c[nH]c([C@@H](NC(=O)C(F)(F)CC)C(C)(C)C)n4)cc3)cc2)c[nH]1)C(C)(C)C` [Compound S-284]: above 100 fold. Consider `CC(C)(C)[C@H](NC(=O)C1(c2ccc(F)cc2)CC1(C)C)c1nc(-c2ccc(-c3ccc(-c4c[nH]c([C@@H](NC(=O)C5(c6ccc(F)cc6)CC5(C)C)C(C)(C)C)n4)cc3)cc2)c[nH]1` (some centres unmarked) [Compound S-285], for which the “Fold-Synergistic 1a (Q30E)” value is listed as above 100 fold. In the case of `CC(C)(C)[C@H](NC(=O)C1(F)CCCCC1)c1nc(-c2ccc(-c3ccc(-c4c[nH]c([C@@H](NC(=O)C5(F)CCCCC5)C(C)(C)C)n4)cc3)cc2)c[nH]1` [Compound S-286], the “Fold-Synergistic 1a (Q30E)” value is on record as above 100 fold. The same measure for `C=CCC(F)(F)C(=O)N[C@H](c1nc(-c2ccc(-c3ccc(-c4c[nH]c([C@@H](NC(=O)C(F)(F)CC=C)C(C)(C)C)n4)cc3)cc2)c[nH]1)C(C)(C)C` [Compound S-287]: above 100 fold; for `Cc1ccc(C(F)(F)C(=O)N[C@H](c2nc(-c3ccc(-c4ccc(-c5c[nH]c([C@@H](NC(=O)C(F)(F)c6ccc(C)cc6)C(C)(C)C)n5)cc4)cc3)c[nH]2)C(C)(C)C)cc1` [Compound S-288]: above 100 fold; for `COc1cccc(C2(C(=O)N[C@H](c3nc(-c4ccc(-c5ccc(-c6c[nH]c([C@@H](NC(=O)C7(c8cccc(OC)c8)CCC(C)CC7)C(C)(C)C)n6)cc5)cc4)c[nH]3)C(C)(C)C)CCC(C)CC2)c1` (some centres unmarked) [Compound S-289]: above 100 fold.

As for `CC(C)(C)[C@H](NC(=O)C1CCN(c2cccc(C#N)c2)C1=O)c1nc(-c2ccc(-c3ccc(-c4c[nH]c([C@@H](NC(=O)C5CCN(c6cccc(C#N)c6)C5=O)C(C)(C)C)n4)cc3)cc2)c[nH]1` (some centres unmarked) [Compound S-291], the “Fold-Synergistic 1a (Q30E)” value is above 100 fold. On to `C[C@H](C(=O)OC(C)(C)C)[C@@H](C)C(=O)N[C@H](c1nc(-c2ccc(-c3ccc(-c4c[nH]c([C@@H](NC(=O)[C@H](C)[C@H](C)C(=O)OC(C)(C)C)C(C)(C)C)n4)cc3)cc2)c[nH]1)C(C)(C)C` [Compound S-292], for which the “Fold-Synergistic 1a (Q30E)” value was above 100 fold.

For `COC12CCC(C(=O)N[C@H](c3nc(-c4ccc(-c5ccc(-c6c[nH]c([C@@H](NC(=O)C78CCC(OC)(CC7)CC8)C(C)(C)C)n6)cc5)cc4)c[nH]3)C(C)(C)C)(CC1)CC2` [Compound S-293], the “Fold-Synergistic 1a (Q30E)” value was above 100 fold. On to `COC(=O)C1([C@H](CC(C)C)C(=O)N[C@H](c2nc(-c3ccc(-c4ccc(-c5c[nH]c([C@@H](NC(=O)[C@@H](CC(C)C)C6(C(=O)OC)CC=CC6)C(C)(C)C)n5)cc4)cc3)c[nH]2)C(C)(C)C)CC=CC1` [Compound S-294], for which the “Fold-Synergistic 1a (Q30E)” value is recorded as above 100 fold. For `CC(=O)N1CCC(C(=O)N[C@H](c2nc(-c3ccc(-c4ccc(-c5c[nH]c([C@@H](NC(=O)C6CCN(C(C)=O)CC6)C(C)(C)C)n5)cc4)cc3)c[nH]2)C(C)(C)C)CC1` [Compound S-297], the “Fold-Synergistic 1a (Q30E)” value is recorded as above 10 fold.

Consider `CC1(C(=O)N[C@H](c2nc(-c3ccc(-c4ccc(-c5c[nH]c([C@@H](NC(=O)C6(C)CC7C=CC6C7)C(C)(C)C)n5)cc4)cc3)c[nH]2)C(C)(C)C)CC2C=CC1C2` (some centres unmarked) [Compound S-298], for which the “Fold-Synergistic 1a (Q30E)” value was above 100 fold. As to `CC(C)(C)OC(=O)N[C@]1(C(=O)N[C@H](c2nc(-c3ccc(-c4ccc(-c5c[nH]c([C@@H](NC(=O)[C@@]6(NC(=O)OC(C)(C)C)C[C@H]6CC(F)F)C(C)(C)C)n5)cc4)cc3)c[nH]2)C(C)(C)C)C[C@H]1CC(F)F` [Compound W-1], the “Fold-Synergistic 1a (Q30E)” value is listed as above 100 fold. As for `CC(C)(C)OC(=O)N[C@]1(C(=O)N[C@H](c2nc(-c3ccc(-c4ccc(-c5c[nH]c([C@@H](NC(=O)[C@@]6(NC(=O)OC(C)(C)C)C[C@@H]6c6ccccc6)C(C)(C)C)n5)cc4)cc3)c[nH]2)C(C)(C)C)C[C@@H]1c1ccccc1` [Compound W-2], the “Fold-Synergistic 1a (Q30E)” value is given as above 100 fold. The figure for `CC(C)(C)OC(=O)N[C@]1(C(=O)N[C@H](c2nc(-c3ccc(-c4ccc(-c5c[nH]c([C@@H](NC(=O)[C@@]6(NC(=O)OC(C)(C)C)C[C@H]6C6CC6)C(C)(C)C)n5)cc4)cc3)c[nH]2)C(C)(C)C)C[C@H]1C1CC1` [Compound W-3] is above 100 fold; for `C=C[C@H]1C[C@@]1(NC(=O)OC(C)(C)C)C(=O)N[C@H](c1nc(-c2ccc(-c3ccc(-c4c[nH]c([C@@H](NC(=O)[C@]5(NC(=O)OC(C)(C)C)C[C@@H]5C=C)C(C)(C)C)n4)cc3)cc2)c[nH]1)C(C)(C)C` [Compound W-4] it is above 100 fold. On to `C=C[C@@H]1C[C@]1(NC(=O)OC(C)(C)C)C(=O)N[C@H](c1nc(-c2ccc(-c3ccc(-c4c[nH]c([C@@H](NC(=O)[C@@]5(NC(=O)OC(C)(C)C)C[C@H]5C=C)C(C)(C)C)n4)cc3)cc2)c[nH]1)C(C)(C)C` [Compound W-7], for which the “Fold-Synergistic 1a (Q30E)” value is above 100 fold. As to `CC(C)(C)OC(=O)N[C@]1(C(=O)N[C@H](c2nc(-c3ccc(-c4ccc(-c5c[nH]c([C@@H](NC(=O)[C@@]6(NC(=O)OC(C)(C)C)C[C@H]6c6ccccc6)C(C)(C)C)n5)cc4)cc3)c[nH]2)C(C)(C)C)C[C@H]1c1ccccc1` [Compound W-8], the “Fold-Synergistic 1a (Q30E)” value is above 100 fold.
